According to PMC8482815, “Targeting Host Glycolysis as a Strategy for Antimalarial Development” (Frontiers in Cellular and Infection Microbiology, 2021):
Values joined by “and” are separate entries in the source; they are usually repeats but may differ in a detail not shown here. Equal entries are not always repeated.

Test system: human erythrocytes
Assay: Untargeted metabolomics and 13C-glucose tracing of enolase inhibitor treated erythrocytes
Assay type: cell-based
Details: 6h
Protocol: Freshly collected erythrocytes were washed, resuspended to 10% hematocrit in buffer [25mM HEPES (pH 7.4), 120mM NaCl, 5.4mM KCl, 1.8mM CaCl2, and 1mM NaH2PO4], incubated for 1 hour at 37°C, then centrifuged at 2000xg for 5 minutes at 4°C, resuspended in fresh wash buffer to 30-40% hematocrit, and split into 210µL aliquots of packed erythrocytes. […] All samples were incubated at 37°C shaking at 500 RPM. Triplicate samples of supernatants and packed erythrocytes were collected at 0, 0.5, 1, and 6-hour intervals and snap-frozen in liquid N2.
RBC and media samples were extracted at 1:10 and 1:20 dilutions, respectively, in 5:3:2 MeOH : MeCN:H2O v/v/v, and supernatants analyzed on a Thermo Vanquish UHPLC coupled to a Thermo Q Exactive mass spectrometer, as extensively described ([Nemkov et al., 2015]; [Nemkov et al., 2017]). The extraction buffer was supplemented with 40uM 3-^13C lactate to allow absolute quantification of lactate isotopologues, including lactate generated via glycolysis ([1,2,3-^13C3] enriched) vs. the pentose phosphate pathway ([2,3-^13C2] enriched), as described ([Reisz et al., 2016]). Metabolite assignments, peak area integration and isotopologues distributions were determined using Maven (Princeton University) ([Nemkov et al., 2015]; [Nemkov et al., 2017]).
Data were auto-scaled and normalized to zero-hour time points. Metabolites were removed from the dataset if greater than 50% of the samples contained missing values or the relative standard deviation among replicates exceeded 25%. Additionally, data was filtered using the interquartile range to reduce near-constant values from the experiment by 5%.
A principal component analysis of preprocessed data was plotted with the 95% confidence interval minimum volume enclosing ellipsoid for each respective group (MetaboAnalyst, cluster, plotly). A two-way repeated measures analysis of variance (ANOVA) was performed with multiple comparisons corrected for using a false discovery rate p-value cutoff of 0.05. Metabolite-Pathway analysis was performed using the R package of MetaboAnalyst, as previously described ([Xia and Wishart, 2010]). Metabolite-Protein nodal analysis was performed using omicsnet.ca and as previously described ([Zhou and Xia, 2018]).

[1] = treated erythrocytes, one value per replicate sample, polarity +
[2] = treated erythrocytes, one value per replicate sample, polarity -
[3] = treated erythrocytes, replicate samples

For `CC(C)(C)C(=O)OCOP(=O)(OCOC(=O)C(C)(C)C)C1CC(O)N(O)C1=O` (stereo not shown) [POMSF], the “AMP level (metabolomics signal)” value (replicate samples) was 5.02E+05 and 4.09E+05 and 5.85E+05, the “ATP level (metabolomics signal)” value (replicate samples) was 1.58E+04 and 9.84E+04 and 9.63E+04 and the “Adenine level (metabolomics signal)” value (replicate samples) was 7.75E+04 and 1.23E+05 and 1.12E+05. For the same compound, the “Cytosine level (metabolomics signal)” value (replicate samples) was 8.05E+04 and 4.16E+04 and 5.19E+04, the “L-alanine level (metabolomics signal)” value (replicate samples) was 8.35E+06 and 9.19E+06 and 8.31E+06 and the “L-arginine level (metabolomics signal)” value (replicate samples) was 2.95E+06 and 0.00E+00 and 2.67E+06. The “L-asparagine level (metabolomics signal)” value (replicate samples) was 5.77E+06 and 5.60E+06 and 5.22E+06, the “L-aspartate level (metabolomics signal)” value (replicate samples) was 1.31E+07 and 1.25E+07 and 1.18E+07 and the “L-cysteine level (metabolomics signal)” value (replicate samples) was 3.97E+05 and 1.14E+05 and 2.20E+05. For the same compound, the “L-glutamate level (metabolomics signal)” value (replicate samples) was 7.50E+06 and 6.15E+06 and 6.74E+06, the “L-glutamine level (metabolomics signal)” value (replicate samples) was 6.26E+07 and 5.76E+07 and 5.48E+07 and the “L-histidine level (metabolomics signal)” value (replicate samples) was 1.46E+06 and 1.38E+06 and 1.44E+06. The “L-isoleucine level (metabolomics signal)” value (replicate samples) was 1.17E+07 and 1.31E+07 and 1.49E+07, the “L-leucine level (metabolomics signal)” value (replicate samples) was 1.27E+08 and 1.58E+08 and 2.15E+08 and the “L-lysine level (metabolomics signal)” value (replicate samples) was 1.43E+06 and 1.33E+06 and 1.52E+06. For the same compound, the “L-methionine level (metabolomics signal)” value (replicate samples) was 1.27E+07 and 1.48E+07 and 1.83E+07, the “L-phenylalanine level (metabolomics signal)” value (replicate samples) was 6.89E+06 and 7.47E+06 and 8.39E+06 and the “L-proline level (metabolomics signal)” value (replicate samples) was 7.25E+07 and 6.63E+07 and 6.78E+07. For the same compound, the “L-serine level (metabolomics signal)” value (replicate samples) was 4.64E+06 and 4.68E+06 and 4.28E+06, the “L-threonine level (metabolomics signal)” value (replicate samples) was 6.95E+06 and 7.99E+06 and 7.08E+06 and the “L-tryptophan level (metabolomics signal)” value (replicate samples) was 1.43E+06 and 1.21E+06 and 1.71E+06. For the same compound, the “L-tyrosine level (metabolomics signal)” value (replicate samples) was 1.74E+07 and 2.17E+07 and 2.50E+07, the “L-valine level (metabolomics signal)” value (replicate samples) was 1.73E+08 (2×) and 1.89E+08 and the “dCMP level (metabolomics signal)” value (replicate samples) was 0.00E+00 and 1.19E+04 and 1.51E+04. For the same compound, the “dTMP level (metabolomics signal)” value (replicate samples) was 2.61E+04 and 1.28E+06 and 7.09E+05, the “glycine level (metabolomics signal)” value (replicate samples) was 1.74E+06 and 1.71E+06 and 1.54E+06 and the “N-Acyl-D-aspartate (C06380) metabolite signal” value [1] was 6.19E+04 and 7.22E+04 and 7.18E+04. For the same compound, the “Poly-gamma-D-glutamate (C05723) metabolite signal” value [1] was 4.28E+07 and 3.89E+07 and 3.91E+07, the “D-Ribitol 5-phosphate (C01068) metabolite signal” value [2] was 0.00E+00 and 1.62E+04 and 1.65E+04 and the “D-glucono-1,5-lactone (C00198) metabolite signal” value [2] was 1.21E+04 and 2.10E+05 and 2.85E+05. For the same compound, the “L-Noradrenaline (C00547) metabolite signal” value [2] was 1.67E+04 and 1.81E+04 and 3.13E+04, the “Oxalosuccinate (C05379) metabolite signal” value [2] was 3.74E+04 and 9.19E+04 and 1.02E+05 and the “Pyridoxamine (C00534) metabolite signal” value [2] was 1.97E+04 and 7.81E+03 and 6.44E+03. The “Thioredoxin disulfide (C00343) metabolite signal” value [2] was 0.00E+00 and 8.04E+04 and 2.51E+04, the “1-4-beta-D-Xylan (metabolite signal)” value [3] was 2.44E+04 and 1.72E+05 and 1.77E+05 and the “2-Hydroxyglutarate/Citramalate (C02630) metabolite signal” value [3] was 8.76E+03 and 5.83E+04 and 8.08E+04. The “5-6-Dihydrothymine (C00906) metabolite signal” value [3] was 7.42E+04 and 3.03E+05 and 2.79E+05, the “5-10-Methenyltetrahydrofolate (metabolite signal)” value [3] was 1.08E+05 and 1.27E+05 (2×) and the “5-Hydroxyisourate (C11821) metabolite signal” value [3] was 4.60E+06 and 7.03E+06 and 4.57E+06. The “5-L-Glutamyl-taurine (metabolite signal)” value [3] was 1.69E+05 and 1.70E+05 and 1.66E+05, the “5-Oxoproline (metabolite signal)” value [3] was 7.65E+04 and 8.27E+05 and 8.67E+05 and the “(S)(+)-Allantoin (C02350) metabolite signal” value [3] was 1.76E+03 and 8.43E+03 and 0.00E+00. For the same compound, the “Allantoate (C00499) metabolite signal” value [3] was 5.45E+05 and 3.06E+05 and 4.74E+05, the “Ascorbate (metabolite signal)” value [3] was 3.17E+02 and 8.49E+04 and 7.10E+04 and the “CMP-N-acetylneuraminate (metabolite signal)” value [3] was 0.00E+00 and 1.60E+04 and 3.30E+04. For the same compound, the “Carnosine (metabolite signal)” value [3] was 1.68E+05 and 2.26E+05 and 1.66E+05, the “Citrate (C00158) metabolite signal” value [3] was 1.56E+03 and 1.77E+04 and 2.42E+04 and the “Creatine (metabolite signal)” value [3] was 1.60E+08 and 1.66E+08 and 1.57E+08. For the same compound, the “Creatinine (metabolite signal)” value [3] was 2.21E+06 and 2.25E+06 and 2.28E+06, the “Cys-Gly (metabolite signal)” value [3] was 7.06E+05 and 5.27E+05 and 4.56E+05 and the “D-Glucosamine (metabolite signal)” value [3] was 2.84E+05 and 2.82E+05 and 2.01E+05. For the same compound, the “D-Glucose (C00031) metabolite signal” value [3] was 3.39E+04 and 4.32E+06 and 3.64E+06, the “D-Ribose (C00121) metabolite signal” value [3] was 1.37E+04 and 1.43E+05 and 1.11E+05 and the “Dehydroascorbate (metabolite signal)” value [3] was 0.00E+00 and 3.73E+04 and 1.82E+04. For the same compound, the “Dihydrofolate (metabolite signal)” value [3] was 1.85E+06 and 9.70E+05 and 1.18E+06, the “Dimethylglycine (metabolite signal)” value [3] was 7.46E+05 and 8.20E+05 and 5.98E+05 and the “Diphosphate (C00013) metabolite signal” value [3] was 0.00E+00 and 2.99E+04 and 2.16E+04. The “Fumarate (C00122) metabolite signal” value [3] was 3.34E+03 and 7.81E+04 and 1.06E+05, the “Glutathione (C00051) metabolite signal” value [3] was 4.14E+07 and 3.33E+07 and 3.37E+07 and the “Glutathione disulfide (metabolite signal)” value [3] was 0.00E+00 and 1.62E+05 and 3.64E+05. The “Hypoxanthine (C00262) metabolite signal” value [3] was 7.62E+03 and 4.26E+03 and 3.54E+03, the “IMP (C00130) metabolite signal” value [3] was 1.27E+04 and 8.26E+04 and 5.76E+04 and the “Inosine (C00294) metabolite signal” value [3] was 1.21E+03 and 4.59E+04 and 5.50E+04. For the same compound, the “L-Citrulline (metabolite signal)” value [3] was 2.43E+06 and 3.35E+06 and 2.92E+06, the “L-Homoserine (metabolite signal)” value [3] was 1.60E+04 and 2.75E+05 and 2.50E+05 and the “Lactate (C01432) metabolite signal” value [3] was 9.68E+05 and 1.69E+07 and 1.76E+07. The “Malate (C00149) metabolite signal” value [3] was 3.14E+03 and 1.07E+05 and 1.56E+05, the “Mannitol (C00392) metabolite signal” value [3] was 6.48E+03 and 1.86E+05 and 1.78E+05 and the “N-Acetylneuraminate (metabolite signal)” value [3] was 0.00E+00 and 1.33E+04 and 1.50E+04. The “N-Glycoloyl-neuraminate (metabolite signal)” value [3] was 0.00E+00 and 1.02E+05 and 7.37E+04, the “NAD+ (C00003) metabolite signal” value [3] was 5.65E+04 and 4.00E+04 and 9.30E+04 and the “Nicotinamide (C00153) metabolite signal” value [3] was 2.54E+07 and 3.18E+07 and 2.67E+07. The “Ornithine (metabolite signal)” value [3] was 1.63E+06 and 1.68E+06 and 1.77E+06, the “Oxaloacetate (C00036) metabolite signal” value [3] was 1.48E+03 and 3.44E+04 and 3.60E+04 and the “Phosphoserine (metabolite signal)” value [3] was 5.41E+04 and 5.91E+04 and 2.74E+04. For the same compound, the “Putrescine (metabolite signal)” value [3] was 3.78E+04 and 4.55E+04 and 4.46E+04, the “Pyridoxal (C00250) metabolite signal” value [3] was 3.76E+04 and 4.39E+04 and 5.36E+04 and the “Pyruvate (C00022) metabolite signal” value [3] was 8.68E+04 and 2.04E+06 and 2.17E+06. The “S-Glutathionyl-L-cysteine (metabolite signal)” value [3] was 0.00E+00 and 1.18E+05 and 1.30E+05, the “Sedoheptulose 1-phosphate (C06222) metabolite signal” value [3] was 0.00E+00 and 1.66E+04 and 1.92E+04 and the “Spermidine (metabolite signal)” value [3] was 6.37E+06 and 6.43E+06 and 6.27E+06. The “Spermine (metabolite signal)” value [3] was 8.12E+06 and 8.01E+06 and 7.75E+06, the “Succinate (C00042) metabolite signal” value [3] was 1.40E+04 and 6.55E+04 and 4.55E+04 and the “Thymidine (C00214) metabolite signal” value [3] was 4.03E+04 and 7.72E+03 and 7.98E+03. For the same compound, the “UDP (C00015) metabolite signal” value [3] was 0.00E+00 and 1.32E+05 and 7.27E+04, the “UDP-N-acetyl-D-glucosamine (metabolite signal)” value [3] was 0.00E+00 and 6.00E+03 and 1.01E+04 and the “UDP-glucose (C00029) metabolite signal” value [3] was 0.00E+00 and 8.80E+03 and 1.03E+04. The “Urate (C00366) metabolite signal” value [3] was 1.39E+04 and 2.30E+04 and 2.01E+04, the “Xanthine (C00385) metabolite signal” value [3] was 8.29E+04 and 9.81E+04 and 9.24E+04 and the “alpha-D-Glucosamine 1-phosphate (metabolite signal)” value [3] was 8.54E+05 and 1.67E+06 and 1.26E+06. The “alpha-D-Ribose 1-phosphate (C00620) metabolite signal” value [3] was 0.00E+00 and 2.89E+04 and 3.75E+04, the “gamma-Glutamyl-gamma-aminobutyrate (metabolite signal)” value [3] was 5.89E+04 and 6.64E+04 and 6.00E+04 and the “gamma-L-Glutamyl-D-alanine (metabolite signal)” value [3] was 3.86E+02 and 3.06E+04 and 3.37E+04. For the same compound, the “gamma-L-Glutamyl-L-cysteine (metabolite signal)” value [3] was 4.08E+03 and 2.68E+04 and 3.24E+04.
